Source: patent US5023256A, “Pharmacologically active aminoimidazopyridines” (Dompe Farmaceutici S.p.A., priority 1989, dated 1991)

Experiments:
[1] = Evaluation of the Lethal Dose50 (LD50), acute toxicity; conditions: in vivo, ip; mouse, 14 days observation, probit method
Method: Evaluation of the Lethal Dose50 (LD50)
The tests were carried out on Swiss Nos (Nossan; Correzzana, Milano) mice weighing 18-20 g each. The animals, divided into groups of 10 animals each (5M+5F), were on an empty stomach for 18 hrs, with water ad libitum, and kept in cages with a grid floor. The compounds (I) were dissolved in water or suspended in 0.5% carboxymethylcellulose and intraperitoneally administered to the animals (10 ml/kg). The number of mice which died within the following 6 hours was recorded. Upon the expiry of the sixth hour, the animals were allowed to eat up to the end of the experimentation which lasted 14 days. During this period all the toxic symptoms and the mortality occurring were noted.
The animals which died during the test period and those which were sacrificed at the end of the same, underwent autopsy for a macroscopic examination of their main organs. The experimental data were statistically compared with the X^2 method and LD50 was extrapolated by the `probit` method.

[2] = test system: sleeping time induced by pentobarbital; test: Effect on the Sleeping Time Induced by Pentobarbital; format: in vivo, male mice Swiss-Nos; conditions: mouse, 25 mg/kg i.p. 30 minutes before 40 mg/kg i.p. sodium pentobarbital; increase vs control group
Method: Effect on the Sleeping Time Induced by Pentobarbital The tests were carried out on male mice Swiss-Nos (Nossan, Correzzana, Milano) weighing 20-24 g, on an empty stomach for 18 hrs, according to the method described by R. Turner (Screening Methods in Pharmacology, Acad. Press, pg 70, 1965). […] The narcosis start was considered from the moment when the animal, lying on its back, lost its straightening reflex. The narcosis end was considered from the moment when the animal recovered such reflex. The carrier or the compounds under examination were administered by intraperitoneal route at the dose 25 mg/kg, 30 minutes before the pentobarbital administration. The resulting data are expressed as sleeping time increase percent in the treated animal group in comparison to the control animal group.

[3] = test system: histamine-induced mortality; test: Effect on the Mortality Induced by Histamine; format: in vivo, male albino guinea pigs (Dunkin-Hartley); conditions: Cavia porcellus, po; guinea pig, p.o. 60 minutes before 1,25 mg/kg i.v. histamine dihydrochloride; amount inhibiting 50% of mortality
Method: Effect on the Mortality Induced by Histamine
The method described by Romer D. et al. (Med. Welt, 17, 791, 1966) was followed and the tests were carried out on male albino guinea pigs (Dunkin-Hartley), weighing 350-450 g, which were kept in cages with a grid floor, on an empty stomach for 24 hrs with water ad libitum.
The compounds under examination were dissolved in 0.5% carboxy methylcellulose and orally administered to the animals 60 minutes before that the same animals were intravenously treated with 1,25 mg/kg of histamine dihydrochloride dissolved in saline solution. In the control animals, treated with carboxymethyl cellulose, the histamine dihydrochloride solution, intravenously administered, induced a 100% mortality.
It was evaluated ED50 which corresponds to the amount of the compound able to inhibit 50% of the mortality induced by histamine: the estimation of ED50 was carried out applying the `probit` method (Finney D. J., Statistical methods in biological assay, pg 512, 1957).

CN(C)CCNc1nc2cccnc2n1Cc1ccccc1.Cl.Cl [Example 2, 3-Benzyl-2-(2-dimethylaminoethylamino)-3H-imidazo[4,5-b]pyridine dihydrochloride]
LD50 at 336 h [1]: > 100 mg/kg | Increase of sleeping time induced by pentobarbital [2]: 76%

CN1CCN(c2nc3cccnc3n2Cc2ccccc2)CC1.O=C(O)/C=C/C(=O)O [Example 1, 3-Benzyl-2-(4-methylpiperazin-1-yl)-3H-imidazo[4,5-b]pyridine fumarate]
ED50 [3]: 0.033 mg/kg | LD50 at 336 h [1]: > 100 mg/kg | Increase of sleeping time induced by pentobarbital [2]: 183%

CC(C)(C)c1ccc(C(O)CCCN2CCC(C(O)(c3ccccc3)c3ccccc3)CC2)cc1 (stereo not drawn) [Terfenadine, reference compound]
Increase of sleeping time induced by pentobarbital [2]: 44%
